Patent US20120135923A1, “Use of Melanocortins to Treat Dyslipidemia” (IPSEN PHARMA, S.A.S., priority 2009, published 2012)
Read-outs that look alike come from different tables or passages of the source. Bridge positions count the residues as written; N and C are the ends. Square brackets hold non-standard residues; d marks the D form. Peptide text beside a SMILES is read from it. Bip = N[C@@H](Cc1ccc(-c2ccccc2)cc1)C(=O)O; 1Nal = N[C@@H](Cc1cccc2ccccc12)C(=O)O; 2Nal = N[C@@H](Cc1ccc2ccccc2c1)C(=O)O; d2Nal = N[C@H](Cc1ccc2ccccc2c1)C(=O)O; Bta = N[C@@H](Cc1csc2ccccc12)C(=O)O; hArg = N=C(N)NCCCC[C@H](N)C(=O)O; Pen = CC(C)(S)[C@H](N)C(=O)O; Nle = CCCC[C@H](N)C(=O)O; GABA = NCCCC(=O)O; βAla = NCCC(=O)O

Experiments:
[1] = molecular target: T1, hMC1-R (Homo sapiens, UniProt Q01726); test: Radioligand binding assay, [125I]-NDP-α-MSH competition, CHO-K1 membranes
T1 construct: expressed in transfected cells; host or cells: CHO-K1
T1 sequence (Q01726 whole entry): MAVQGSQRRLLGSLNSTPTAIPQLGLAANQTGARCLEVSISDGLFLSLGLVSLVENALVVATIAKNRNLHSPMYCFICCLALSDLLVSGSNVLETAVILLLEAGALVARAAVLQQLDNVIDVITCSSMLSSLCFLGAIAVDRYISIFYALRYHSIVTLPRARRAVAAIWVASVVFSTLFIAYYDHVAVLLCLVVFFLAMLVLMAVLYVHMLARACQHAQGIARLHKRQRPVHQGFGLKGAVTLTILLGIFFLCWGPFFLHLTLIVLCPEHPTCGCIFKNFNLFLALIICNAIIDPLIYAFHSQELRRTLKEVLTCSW

[2] = molecular target: T2, hMC3-R (Homo sapiens, UniProt P41968); test: as above
T2 construct: expressed in transfected cells; host or cells: CHO-K1
T2 sequence (P41968 whole entry): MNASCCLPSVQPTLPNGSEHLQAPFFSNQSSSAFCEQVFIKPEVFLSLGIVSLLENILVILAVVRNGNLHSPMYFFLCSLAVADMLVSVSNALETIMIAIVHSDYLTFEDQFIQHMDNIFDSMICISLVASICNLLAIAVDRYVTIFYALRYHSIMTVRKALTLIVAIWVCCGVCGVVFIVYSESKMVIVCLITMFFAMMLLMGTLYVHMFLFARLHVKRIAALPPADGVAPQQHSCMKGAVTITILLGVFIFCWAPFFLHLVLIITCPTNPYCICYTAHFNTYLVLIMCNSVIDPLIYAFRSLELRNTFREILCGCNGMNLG

[3] = molecular target: T3, hMC4-R (Homo sapiens, UniProt P32245); test: as above
T3 construct: expressed in transfected cells; host or cells: CHO-K1
T3 sequence (P32245 whole entry): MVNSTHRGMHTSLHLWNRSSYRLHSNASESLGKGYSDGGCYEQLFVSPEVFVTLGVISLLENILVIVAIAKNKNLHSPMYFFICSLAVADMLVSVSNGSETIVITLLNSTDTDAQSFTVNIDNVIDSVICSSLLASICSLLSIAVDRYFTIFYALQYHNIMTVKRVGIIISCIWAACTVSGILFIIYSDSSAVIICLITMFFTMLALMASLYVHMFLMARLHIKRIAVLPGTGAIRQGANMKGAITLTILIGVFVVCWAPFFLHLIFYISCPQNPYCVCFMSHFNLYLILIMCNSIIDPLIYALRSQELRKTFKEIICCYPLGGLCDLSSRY

[4] = molecular target: T4, hMC5-R (Homo sapiens, UniProt P33032); test: as above
T4 construct: expressed in transfected cells; host or cells: CHO-K1
T4 sequence (P33032 whole entry): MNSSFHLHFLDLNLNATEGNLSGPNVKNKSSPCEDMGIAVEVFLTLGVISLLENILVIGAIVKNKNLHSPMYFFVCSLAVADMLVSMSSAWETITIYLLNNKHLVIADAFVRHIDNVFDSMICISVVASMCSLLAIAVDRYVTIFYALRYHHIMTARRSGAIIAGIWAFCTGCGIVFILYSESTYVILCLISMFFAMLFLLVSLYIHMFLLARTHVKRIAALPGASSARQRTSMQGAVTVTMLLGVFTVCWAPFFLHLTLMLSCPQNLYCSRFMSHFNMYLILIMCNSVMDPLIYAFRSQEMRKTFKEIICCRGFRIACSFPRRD

[5] = molecular target: T1, hMC1-R; test: cyclic AMP bioassay (ECL) in CHO-K1 cells; type: cell-based
Experimental: (§1) Intracellular cyclic AMP (cAMP) levels were determined by an electrochemiluminescence (ECL) assay (Meso Scale Discovery®, Gaithersburg, Md.; referred to hereinafter as MSD). […] Transgenic CHO-K1 cells stably expressing hMC receptor subtypes 1, 3, 4 or 5 were dispensed at a density of approximately 7,000 cells/well in 384-well Multi-Array®plates (MSD) containing integrated carbon electrodes and coated with anti-cAMP antibody. Increasing concentrations of the test compounds were added and the cells were incubated for approximately 40 minutes at approximately 37° C. […] At the end of the second incubation period read buffer (Tris-buffered solution containing an ECL co-reactant and Triton X-100 at ph 7.8) was added and the cAMP levels in the cell lysates were immediately determined by ECL detection with a Sector Imager 6000 Reader® (MSD). Data were analyzed using a computer-assisted non-linear regression analysis (XL fit; IDBS) and reported as either an EC50 value or a Kb value.
(§2) The Kb value reflects the potency of an antagonist and is determined by Schild analysis. In brief, concentration-response curves of an agonist are carried out in the presence of increasing concentrations of an antagonist. […] It is calculated by extrapolating the line on a Schild plot to zero on the y-axis.

[6] = molecular target: T2, hMC3-R; test: cyclic AMP bioassay (ECL) in CHO-K1 cells; type: cell-based; settings: for Kb: Table 9C/9D, antagonist potency by Schild analysis, read-out: Kb hMC3-R
Experimental: as §1, §2

[7] = molecular target: T3, hMC4-R; test: cyclic AMP bioassay (ECL) in CHO-K1 cells; type: cell-based; settings: for Kb: Table 9C/9D, antagonist potency by Schild analysis, read-out: Kb MC4-R
[8] = molecular target: T4, hMC5-R; test: cyclic AMP bioassay (ECL) in CHO-K1 cells; type: cell-based
[9] = Table 9C/9D, read-out: EC50 hMC1-R
[10] = Table 9C/9D, read-out: EC50 hMC5-R

Row | Ki ([1]; Table 5, read-out: Ki hMC1-R) [nM] | Ki ([2]; Table 5, read-out: Ki hMC3-R) [nM] | Ki ([3]; Table 5, read-out: Ki KMC4-R) [nM] | Ki ([4]; Table 5, read-out: Ki hMC5-R) [nM] | SMILES | also measured
1 | 0.576 | 3.98 | 2.82 | 3.91 | CC(=O)N[C@@H](CC1CCCCC1)C(=O)N[C@H]1CC(=O)NCCCC[C@@H](C(N)=O)NC(=O)CCCNC(=O)[C@H](Cc2c[nH]c3ccccc23)NC(=O)[C@H](CCCNC(=N)N)NC(=O)[C@@H](Cc2ccc3ccccc3c2)NC(=O)[C@H](Cc2c[nH]cn2)NC1=O [Ac-Cha-c(Asp-His-D-2-Nal-Arg-Trp-Gaba-Lys)-NH2] | EC50 [5, 9]: 1.27 nM; Kb [6]: 3.02 nM; Kb [7]: 0.442 nM; EC50 [8, 10]: 0.736 nM
2 | 114 | 63.9 | 3.07 | 1660 | CCCC[C@H](NC(C)=O)C(=O)N[C@H]1CSSC[C@@H](C(N)=O)NC(=O)[C@H](Cc2cccc3ccccc23)NC(=O)[C@H](CCCNC(=N)N)NC(=O)[C@@H](Cc2ccc3ccccc3c2)NC(=O)[C@H](Cc2c[nH]cn2)NC(=O)[C@@H](C)NC1=O [Ac-Nle-c(Cys-D-Ala-His-D-2-Nal-Arg-1-Nal-Cys)-NH2] (Ac-[Nle]C[dA]H[d2Nal]R[1Nal]C-NH2; disulfide 2-8) | EC50 [5, 9]: 383 nM; Kb [6]: 61.5 nM; Kb [7]: 53.6 nM; EC50 [8, 10]: 2840 nM
3 | 32.5 | 5.85 | 2.53 | 94.6 | CCCC[C@H](NC(C)=O)C(=O)N[C@H]1CSSC[C@@H](C(N)=O)NC(=O)[C@H](Cc2ccc3ccccc3c2)NC(=O)[C@H](CCCNC(=N)N)NC(=O)[C@@H](Cc2ccc3ccccc3c2)NC(=O)[C@H](Cc2c[nH]cn2)NC(=O)[C@@H](C)NC1=O [Ac-Nle-c(Cys-D-Ala-His-D-2-Nal-Arg-2-Nal-Cys)-NH2] (Ac-[Nle]C[dA]H[d2Nal]R[2Nal]C-NH2; disulfide 2-8) | 
4 | 3.93 | 876 | 48 | 4940 | CCCC[C@H](NC(C)=O)C(=O)N[C@H]1CSSC[C@@H](C(N)=O)NC(=O)[C@@H](C)NC(=O)[C@H](Cc2c[nH]c3ccccc23)NC(=O)[C@H](CCCNC(=N)N)NC(=O)[C@@H](Cc2ccccc2)NC(=O)[C@H](Cc2c[nH]cn2)NC(=O)[C@@H](C)NC1=O [Ac-Nle-c(Cys-D-Ala-His-D-Phe-Arg-Trp-D-Ala-Cys)-NH2] (Ac-[Nle]C[dA]H[dF]RW[dA]C-NH2; disulfide 2-9) | 
5 | 0.537 | 86.1 | 5.89 | 2.56 | CCCC[C@H](NC(C)=O)C(=O)N[C@@H]1C(=O)N[C@@H](Cc2c[nH]cn2)C(=O)N[C@H](Cc2ccccc2)C(=O)N[C@@H](CCCNC(=N)N)C(=O)N[C@@H](Cc2c[nH]c3ccccc23)C(=O)NCCCC(=O)N[C@H](C(N)=O)CSSC1(C)C [Ac-Nle-c(Pen-His-D-Phe-Arg-Trp-Gaba-Cys)-NH2] (Ac-[Nle][Pen]H[dF]RW[GABA]C-NH2; disulfide 2-8 (inferred)) | 
6 | 0.461 | 2.45 | 0.931 |  | CC(=O)N[C@@H](CCc1ccccc1)C(=O)N[C@H]1CC(=O)NCCCC[C@@H](C(N)=O)NC(=O)CCCNC(=O)[C@H](Cc2c[nH]c3ccccc23)NC(=O)[C@H](CCCNC(=N)N)NC(=O)[C@@H](Cc2ccc3ccccc3c2)NC(=O)[C@H](Cc2c[nH]cn2)NC1=O [Ac-hPhe-c(Asp-His-D-2-Nal-Arg-Trp-Gaba-Lys)-NH2] | EC50 [5, 9]: 0.413 nM; Kb [6]: 9.32 nM; Kb [7]: 0.824 nM; EC50 [8, 10]: 0.307 nM
7 | 0.42 | 106 | 4.75 | 1260 | C[C@@H](O)[C@H](NC(=O)[C@H]1CSSC[C@H](NC(=O)[C@H](N)Cc2ccccc2)C(=O)N[C@@H](Cc2c[nH]cn2)C(=O)N[C@H](Cc2ccccc2)C(=O)N[C@@H](CCCNC(=N)N)C(=O)N[C@@H](Cc2c[nH]c3ccccc23)C(=O)NCCCC(=O)N1)C(N)=O [D-Phe-c(Cys-His-D-Phe-Arg-Trp-Gaba-D-Cys)-Thr-NH2] (H-[dF]CH[dF]RW[GABA][dC]T-NH2; disulfide 2-8) | 
8 | 0.207 | 43.2 | 2.58 | 344 | C[C@@H](O)[C@H](NC(=O)[C@H]1CSSC[C@H](NC(=O)[C@H](N)Cc2ccccc2)C(=O)N[C@@H](Cc2c[nH]cn2)C(=O)N[C@H](Cc2ccccc2)C(=O)N[C@@H](CCCNC(=N)N)C(=O)N[C@@H](Cc2c[nH]c3ccccc23)C(=O)NCCC(=O)N1)C(N)=O [D-Phe-c(Cys-His-D-Phe-Arg-Trp-β-Ala-D-Cys)-Thr-NH2] (H-[dF]CH[dF]RW[βAla][dC]T-NH2; disulfide 2-8) | 
9 | 0.442 | 123 | 10.3 | 521 | C[C@@H](O)[C@H](NC(=O)[C@H]1CSSC[C@H](NC(=O)[C@H](N)Cc2ccccc2)C(=O)N[C@@H](Cc2c[nH]cn2)C(=O)N[C@H](Cc2ccccc2)C(=O)N[C@@H](CCCCNC(=N)N)C(=O)N[C@@H](Cc2c[nH]c3ccccc23)C(=O)NCCC(=O)N1)C(N)=O [D-Phe-c(Cys-His-D-Phe-hArg-Trp-β-Ala-D-Cys)-Thr-NH2] (H-[dF]CH[dF][hArg]W[βAla][dC]T-NH2; disulfide 2-8) | 

Continued, molecule first:

Row | SMILES | Ki ([1]; Table 5, read-out: Ki hMC1-R) [nM] | Ki ([2]; Table 5, read-out: Ki hMC3-R) [nM] | Ki ([3]; Table 5, read-out: Ki KMC4-R) [nM] | Ki ([4]; Table 5, read-out: Ki hMC5-R) [nM] | also measured
10 | CCCC[C@H](NC(C)=O)C(=O)N[C@H]1CSSC[C@@H](C(N)=O)NC(=O)[C@H](Cc2c[nH]c3ccccc23)NC(=O)[C@H](CCCNC(=N)N)NC(=O)[C@@H](Cc2ccccc2)NC(=O)[C@H](Cc2c[nH]cn2)NC(=O)[C@@H](C)NC1=O [Ac-Nle-c(Cys-D-Ala-His-D-Phe-Arg-Trp-Cys)-NH2] |  |  |  |  | Ki ([1]; Ki hMC1-R, Table 5): 11 nM; Ki ([2]; Ki hMC3-R, Table 5): 26 nM; Ki ([3]; Ki KMC4-R, Table 5): 7.6 nM; Ki ([4]; Ki hMC5-R, Table 5): 1800 nM; EC50 [5]: 2.4 nM; EC50 [6]: 0.33 nM; EC50 [7]: 0.078 nM; EC50 [8]: 420 nM
11 | CCCC[C@H](NC(C)=O)C(=O)N[C@H]1CSSC[C@@H](C(=O)O)NC(=O)[C@H](Cc2c[nH]c3ccccc23)NC(=O)[C@H](CCCNC(=N)N)NC(=O)[C@@H](Cc2ccccc2)NC(=O)[C@H](Cc2c[nH]cn2)NC(=O)[C@@H](C)NC1=O [Ac-Nle-c(Cys-D-Ala-His-D-Phe-Arg-Trp-Cys)-OH] |  |  |  |  | Ki ([1]; Ki hMC1-R, Table 5): 30.7 nM; Ki ([2]; Ki hMC3-R, Table 5): 152 nM; Ki ([3]; Ki KMC4-R, Table 5): 15.6 nM; Ki ([4]; Ki hMC5-R, Table 5): 114 nM
12 | CC(=O)N[C@@H](Cc1ccccc1)C(=O)N[C@H]1CSSC[C@@H](C(N)=O)NC(=O)CCCNC(=O)[C@H](Cc2c[nH]c3ccccc23)NC(=O)[C@H](CCCNC(=N)N)NC(=O)[C@@H](Cc2ccccc2)NC(=O)[C@H](Cc2c[nH]cn2)NC1=O [Ac-Phe-c(Cys-His-D-Phe-Arg-Trp-Gaba-Cys)-NH2] (Ac-FCH[dF]RW[GABA]C-NH2; disulfide 2-8) |  |  |  |  | Ki ([1]; Ki hMC1-R): 0.254 nM; Ki ([2]; Ki hMC3-R): 18.5 nM; Ki ([3]; Ki KMC4-R): 2.13 nM; Ki ([4]; Ki hMC5-R): 0.714 nM
13 | CC(=O)N[C@H]1CSSC[C@@H](C(=O)N2CCC[C@H]2C(=O)N2CCC[C@H]2C(=O)N[C@@H](CCCCN)C(=O)N[C@@H](CC(=O)O)C(N)=O)NC(=O)[C@H](C)NC(=O)[C@H](Cc2csc3ccccc23)NC(=O)[C@H](CCCNC(=N)N)NC(=O)[C@@H](Cc2ccc3ccccc3c2)NC(=O)[C@H](Cc2c[nH]cn2)NC(=O)[C@H](CCC(=O)O)NC1=O [Ac-c(Cys-Glu-His-D-2-Nal-Arg-Bal-Ala-Cys)-Pro-Pro-Lys-Asp-NH2] (Ac-CEH[d2Nal]R[Bta]ACPPKD-NH2; disulfide 1-8) |  |  |  |  | Ki ([1]; Table 6, read-out: Ki hMC1-R): 163 nM; Ki ([2]; Table 6, read-out: Ki hMC3-R): 23 nM; Ki ([3]; Table 6, read-out: Ki hMC4-R): 0.586 nM; Ki ([4]; Table 6, read-out: Ki hMC5-R): 844 nM
14 | C[C@@H](O)[C@H](NC(=O)[C@H]1CSSC[C@H](NC(=O)[C@H](N)Cc2ccccc2)C(=O)N[C@@H](Cc2c[nH]cn2)C(=O)N[C@H](Cc2ccccc2)C(=O)N[C@@H](CCCNC(=N)N)C(=O)N[C@@H](Cc2ccc(-c3ccccc3)cc2)C(=O)NCCC(=O)N1)C(N)=O [D-Phe-c(Cys-His-D-Phe-Arg-Bip-β-Ala-D-Cys)-Thr-NH2] (H-[dF]CH[dF]R[Bip][βAla][dC]T-NH2; disulfide 2-8) | 5.8 | 3370 | 583 | 1130 | 
15 | C[C@@H](O)[C@H](NC(=O)[C@H]1CSSC[C@H](NC(=O)[C@H](N)Cc2ccccc2)C(=O)N[C@@H](Cc2c[nH]cn2)C(=O)N[C@H](Cc2ccccc2)C(=O)N[C@@H](CCCCNC(=N)N)C(=O)N[C@@H](Cc2ccc(-c3ccccc3)cc2)C(=O)NCCC(=O)N1)C(N)=O [D-Phe-c(Cys-His-D-Phe-hArg-Bip-β-Ala-D-Cys)-Thr-NH2] (H-[dF]CH[dF][hArg][Bip][βAla][dC]T-NH2; disulfide 2-8 (inferred)) | 1.68 | 1260 | 172 | 1220 | 
16 | C[C@@H]1C(=O)N[C@@H](Cc2cnc[nH]2)C(=O)N[C@H](Cc2ccccc2)C(=O)N[C@@H](CCCNC(=N)N)C(=O)N[C@@H](Cc2c[nH]c3ccccc23)C(=O)N[C@H](C(N)=O)CCNC(=O)CC[C@@H]2NC(=O)N1C2=O [c[Hydantoin(C(O)-(Glu-D-Ala))-His-D-Phe-Arg-Trp-Dab]-NH2] |  |  |  |  | Ki ([1]; Table 7, read-out: Ki hMC1): 28 nM; Ki ([2]; Table 7, read-out: Ki hMC3): 90.5 nM; Ki ([3]; Table 7, read-out: Ki hMC4): 12.7 nM; Ki ([4]; Table 7, read-out: Ki hMC5): 877 nM
17 | CC[C@H](C)[C@@H]1NC(=O)N([C@H]2CSSC[C@@H](C(N)=O)NC(=O)[C@H](Cc3c[nH]c4ccccc34)NC(=O)[C@H](CCCNC(=N)N)NC(=O)[C@@H](Cc3ccccc3)NC(=O)[C@H](Cc3cnc[nH]3)NC(=O)[C@@H](C)NC2=O)C1=O [c[Hydantoin(C(O)-(Ile-Cys))-D-Ala-His-D-Phe-Arg-Trp-Cys]-NH2] |  |  |  |  | Ki ([1]; Ki hMC1, Table 7): 53.4 nM; Ki ([3]; Ki hMC4, Table 7): 41.6 nM; EC50 [6]: 8.51 nM; EC50 [7]: 1.85 nM
